# From patent US11976055B1, “2-(1-(3-(dimethylamino)propyl)-4,5-diphenyl-1H-imidazol-2-yl)pyridin-3-ol as an antitumor and antimicrobial compound” (KING FAISAL UNIVERSITY, priority 2023, dated 2024)
# Assays:
# [1] = tested on: human osteosarcoma cells (MG-63); assay: Cytotoxicity by SRB assay, MG-63 cells; format: cell-based; conditions: osteosarcoma (MG-63) cells, 0.01 μM to 100 μM, 72 h
# Experimental: (§1) The human prostate cancer cells (PC3) and human osteosarcoma cells (MG-63) were obtained from Nawah Scientific Inc. (Mokatam, Cairo, Egypt) and cultured in DMEM (Dulbecco's modified eagle's medium), Gibco, USA, supplemented with fetal bovine serum (FBS) at a concentration of 10% and 100 U/mL of penicillin and streptomycin (PS). The Cells were incubated at 37° C. in a humidified environment that contained 5% CO2. Cells were seeded in 96-well plates as aliquots of 100 μL cell suspension and incubated in a complete media for 24 h. afterward, cells were treated with 2-(1-(3-(Dimethylamino)propyl)-4,5-diphenyl-1H-imidazol-2-yl)pyridin-3-ol at diverse concentrations ranging from 0.01 μM to 100 μM for 72 h. […] Then, 150 μL of Tris pH 10.5 (10 mM) was added, and the absorbance was measured at 540 nm using a BMG LABTECH®-FLUOstar Omega microplate reader (Ortenberg, Germany). Half maximal inhibitory concentrations (IC50) values were calculated for each experiment using GraphPad Prism 6 software. […] The inhibition was calculated using the following equation: Inhibition %=100−Average Viability The anticancer activity of 2-(1-(3-(Dimethylamino)propyl)-4,5-diphenyl-1H-imidazol-2-yl)pyridin-3-ol was assessed against highly aggressive androgen-independent metastatic human prostate cancer cells (PC3) and osteosarcoma (MG-63) cells.
# [2] = tested on: human prostate cancer cells (PC3); assay: Cytotoxicity by SRB assay, PC3 cells; format: cell-based; conditions: androgen-independent metastatic human prostate cancer cells (PC3), 0.01 μM to 100 μM, 72 h
# Experimental: as §1
structure (smiles),measurement,setting,value
"CN(C)CCCn1c(-c2ncccc2O)nc(-c2ccccc2)c1-c1ccccc1 [2-(1-(3-(Dimethylamino)propyl)-4,5-diphenyl-1H-imidazol-2-yl)pyridin-3-ol]",antiproliferative activity against MG-63 cells,[1],excellent antiproliferative activities
same,antiproliferative activity against PC3 cells,[2],excellent antiproliferative activities
same,melting point,,133 to 135 °C
